Laboratory results published in US9901097B2, “Agricultural and horticultural fungicidal composition” (Nippon Soda Co., Ltd., priority 2011, dated 2018).
Read-outs that look alike come from different tables or passages of the source.

What was measured:
[1] = test system: cucumber gray mold disease pathogens (Botrytis cinerea); test: Control test for cucumber gray mold disease (sprayed cucumber seedlings); assay type: in vivo; details: Botrytis cinerea; for pest or weed control at 10 ppm: drug I alone 10 ppm; for pest or weed control at 1.6 ppm: drug II alone 1.6 ppm; for pest or weed control at 6.3 ppm: drug II alone 6.3 ppm; for pest or weed control at 400 ppm: drug II alone 400 ppm; for pest or weed control at 100 ppm: drug II alone 100 ppm
Protocol: The drug I and the drug II were dissolved in an organic solvent and a surfactant, and the prepared mixed emulsifiable concentrate was diluted with water to a predetermined concentration, and sprayed to cucumber seedlings that had been cultivated in unglazed pots (cultivar “Sagamihanjiro” cotyledon stage). Additionally, in Tables, the symbol A indicating the drug I represents a nitrogen-containing heterocyclic compound represented by the formula (A), the symbol B indicating the drug I represents a nitrogen-containing heterocyclic compound represented by the formula (B), and the symbol C indicating the drug I represents a nitrogen-containing heterocyclic compound represented by the formula (C). Further, the number indicating the drug II represents each of the compounds described in the numbers described above. Additionally, “-” in Tables represents that the drug was not used.
After air-drying at room temperature, a suspension of the conidia of cucumber gray mold disease pathogens (Botrytis cinerea) was inoculated by dropwise addition and held in a dark room at 20° C. with a high humidity for 3, 4, or 5 days. By investigation on the state of lesion appearance in leaves with comparison with a non-treatment case, the controlling effect was determined. The test was carried out in duplicate. In addition, the expected value of the controlling effect was calculated based on Colby's equation.
(§1) At the same time, in Comparative Example, in the case of using the drug I only and the case of using the drug II only, the test was carried out by the same method.
(§2) Additionally, the Colby's equation is E=M+N−MN/100. Here, E is the expected value of the controlling effect (%), M is the controlling effect (%) calculated from the measurement with the use of the drug I alone, and N is the controlling effect (%) calculated from the measurement with the use of the drug II alone. Additionally, in Tables, the expected values with the use of the drug alone were the same as the values calculated from the measurement, and were thus not shown.

Botrytis cinerea = test: Sterilization test (growth inhibition of Botrytis cinerea in potato dextrose medium, 96-well microplate, turbidity 405 nm); assay type: cell-based; details: Botrytis cinerea, read-out: Growth inhibition rate; for inhibition at 0.1 ppm: drug I alone 0.1 ppm; for inhibition at 0.02 ppm: drug II alone 0.02 ppm; for inhibition at 10 ppm: drug II alone 10 ppm
Protocol: The solutions thus obtained were mixed to prepare fungicidal compositions.
Conidia of Botrytis cinerea were added to and dispersed in a potato dextrose culture medium. A fungicidal composition was added thereto and mixed. This was dispensed in a 96-well microplate and cultured at 20° C. for 3 days in a dark setting. Then, the turbidity was measured at a wavelength of 405 nm in a microplate reader. From comparison with the measured value of turbidity in the case of non-treatment (without the addition of the fungicidal composition), the growth inhibition rate of Botrytis cinerea (%) was calculated. The test was carried out in duplicate. Further, the expected value of the growth inhibition was calculated based on Colby's equation.
In addition, the Colby's equation is E=M+N−MN/100. Here, E is the expected value of a growth inhibition rate (%), M is the growth inhibition rate (%) calculated from the measurement with the use of the drug I alone, and N is the growth inhibition rate (%) calculated from the measurement with the use of the drug II alone. Additionally, in Tables, the expected values with the use of the drug alone were not shown, because they were the same as the values calculated from the measurement.
At the concentrations shown in Tables 6 to 8, the drug I and the drug II were dissolved separately in dimethyl sulfoxide. The obtained solution was mixed to prepare a fungicidal composition.
Using the same methods as in Example 1 and Comparative Example 1, the sterilization test was carried out. Additionally, in Tables, the expected values with the use of the drug alone were not shown, because they were the same as the values calculated from the measurement.

[2] = test system: cucumber powdery mildew disease pathogens (Sphaerotheca fuliginea); test: Control test for cucumber powdery mildew disease (sprayed cucumber seedlings); assay type: in vivo; details: held 7 days after inoculation
Protocol: The drug I and the drug II were dissolved in an organic solvent and a surfactant, and the prepared mixed emulsifiable concentrate was diluted with water to a predetermined concentration, and sprayed to cucumber seedlings that had been cultivated in unglazed pots (cultivar “Sagamihanjiro”, cotyledon stage). Additionally, in Tables, the symbol A indicating the drug I represents a nitrogen-containing heterocyclic compound represented by the formula (A), the symbol B indicating the drug I represents a nitrogen-containing heterocyclic compound represented by the formula (B), and the symbol C indicating the drug I represents a nitrogen-containing heterocyclic compound represented by the formula (C). Further, in Tables, the number indicating the drug II represents each of the compounds described in the numbers described above. Additionally, “-” in Tables represents that the drug was not used.
After air-drying at room temperature, the conidia of cucumber powdery mildew disease pathogens (Sphaerotheca fuliginea) was inoculated by shaking off and held in a warm room for 7 days. By investigation on the state of lesion appearance in leaves with comparison with a non-treatment case, the controlling effect was determined. The test was carried out in duplicate. In addition, the expected value of the controlling effect was calculated based on Colby's equation.
as §1, §2

[3] = 72 h, read-out: Control effect (%), 3 days after inoculation
[4] = 96 h, read-out: Control effect (%), 4 days after inoculation
[5] = 96 h, read-out: Control effect, Table 9, 4 days after inoculation
[6] = 96 h, read-out: Control effect, Table 11, 4 days after inoculation
[7] = 120 h, read-out: Control effect (%), 5 days after inoculation
[8] = 120 h, read-out: Control effect, Table 10, 5 days after inoculation
[9] = 96 h, 4 days after inoculation, read-out: Control effect (%)
[10] = 96 h, Table 9, 4 days after inoculation, read-out: Control effect
[11] = 120 h, Table 10, 5 days after inoculation, read-out: Control effect
[12] = 72 h, 3 days after inoculation, read-out: Control effect (%)

Cc1nc2c(F)c(F)ccc2cc1Oc1cccc(F)c1C(C)(C)O [C]
pest or weed control at 10 ppm [1, 3]: 54%
pest or weed control at 10 ppm [1, 4]: 19%
pest or weed control at 10 ppm [1, 5]: 51%
pest or weed control at 10 ppm [1, 6]: 76%
pest or weed control at 10 ppm [1, 7]: 67%
pest or weed control at 10 ppm [1, 8]: 47%
inhibition at 0.1 ppm (Botrytis cinerea; Example 1 (Tables 1-5)): 19%
inhibition at 0.1 ppm (Botrytis cinerea; Example 2 (Tables 6-8)): 21%
Control effect (%) ([2]; drug I alone 10 ppm): 30%

CC1(C)CN=C(c2cnc3ccccc3c2)c2cccc(F)c2O1 [A]
pest or weed control at 10 ppm [1, 3]: 52%
pest or weed control at 10 ppm [1, 4]: 37%
pest or weed control at 10 ppm [1, 7]: 60%
pest or weed control at 10 ppm [1, 8]: 43%
inhibition at 0.1 ppm (Botrytis cinerea; Example 1 (Tables 1-5)): 19%
inhibition at 0.1 ppm (Botrytis cinerea; Example 2 (Tables 6-8)): 20%
Control effect (%) ([2]; drug I alone 10 ppm): 40%

Cc1nc2c(F)cccc2cc1Oc1cccc(F)c1C(C)(C)O [B]
pest or weed control at 10 ppm [1, 3]: 54%
pest or weed control at 10 ppm [1, 4]: 37%
pest or weed control at 10 ppm [1, 5]: 50%
pest or weed control at 10 ppm [1, 6]: 78%
pest or weed control at 10 ppm [1, 7]: 64%
pest or weed control at 10 ppm [1, 8]: 44%
inhibition at 0.1 ppm (Botrytis cinerea; Example 1 (Tables 1-5)): 19%
inhibition at 0.1 ppm (Botrytis cinerea; Example 2 (Tables 6-8)): 18%
Control effect (%) ([2]; drug I alone 10 ppm): 60%

COC(=O)NCc1cc(/C(C)=N/OCc2cccc(C)n2)ccc1Cl [Drug 29, Pyribencarb]
pest or weed control at 0.4 ppm ([1]; 96 h, 4 days after inoculation, drug II alone 0.4 ppm, read-out: Control effect (%)): 0%
pest or weed control at 1.6 ppm [1, 9]: 0%
pest or weed control at 6.3 ppm [1, 9]: 37%
inhibition at 0.02 ppm (Botrytis cinerea; Example 1 (Tables 1-5)): 22%

CCCCc1c(C)nc(NCC)nc1OS(=O)(=O)N(C)C [Drug 60, Bupirimate]
pest or weed control at 25 ppm ([1]; 72 h, read-out: Control effect (%), 3 days after inoculation, drug II alone 25 ppm): 0%
Control effect (%) ([2]; drug II alone 6.3 ppm): 10%
Control effect (%) ([2]; drug II alone 25 ppm): 50%

CCc1ccc(C(=O)NN(C(=O)c2cc(C)cc(C)c2)C(C)(C)C)cc1 [Drug 44, Tebufenozide]
pest or weed control at 400 ppm ([1]; 96 h, Table 11, 4 days after inoculation, read-out: Control effect): 22%
pest or weed control at 400 ppm ([1]; 120 h, 5 days after inoculation, read-out: Control effect (%)): 0%
inhibition at 10 ppm (Botrytis cinerea; Example 2 (Tables 6-8)): 0%

CCCOC/C(=N\c1ccc(Cl)cc1C(F)(F)F)n1ccnc1 [Drug 2, Triflumizole]
pest or weed control at 100 ppm [1, 9]: 1%
pest or weed control at 400 ppm [1, 10]: 64%
pest or weed control at 100 ppm [1, 11]: 33%
inhibition at 2 ppm (Botrytis cinerea; Example 1 (Tables 1-5), drug II alone 2 ppm): 59%

Cn1nnnc1/C(=N\OCc1cccc(NC(=O)OC(C)(C)C)n1)c1ccccc1 [Drug 38]
pest or weed control at 100 ppm [1, 10]: 0%
inhibition at 10 ppm (Botrytis cinerea; Example 1 (Tables 1-5)): 9%

C[C@@H]1[C@@H](c2ccc(Cl)cc2)SC(=O)N1C(=O)NC1CCCCC1 [Drug 43, Hexythiazox]
pest or weed control at 400 ppm [1, 6]: 2%
pest or weed control at 100 ppm [1, 7]: 0%
pest or weed control at 400 ppm [1, 7]: 0%
inhibition at 10 ppm (Botrytis cinerea; Example 2 (Tables 6-8)): 0%

Cc1cc(C(F)(F)F)nn1CC(=O)N1CCC(c2nc(C3=NOC(c4c(F)cccc4F)C3)cs2)CC1 (stereo not drawn) [Drug 61]
pest or weed control at 6.3 ppm [1, 12]: 0%
pest or weed control at 100 ppm [1, 12]: 0%
Control effect (%) ([2]; drug II alone 6.3 ppm): 0%

COC(=O)NC(=S)Nc1ccccc1NC(=S)NC(=O)OC [Drug 3, Thiophanate-methyl]
pest or weed control at 1.6 ppm [1, 10]: 3%
pest or weed control at 6.3 ppm [1, 11]: 89%
inhibition at 0.02 ppm (Botrytis cinerea; Example 1 (Tables 1-5)): 0%
